target: Serine/threonine-protein kinase PLK1 (Homo sapiens, UniProt P53350); assay: activity against human Plk1 kinase – biochemical, selectivity assay for PKD inhibitor project, dose response (AID 1383)
Sequence (P53350 whole entry): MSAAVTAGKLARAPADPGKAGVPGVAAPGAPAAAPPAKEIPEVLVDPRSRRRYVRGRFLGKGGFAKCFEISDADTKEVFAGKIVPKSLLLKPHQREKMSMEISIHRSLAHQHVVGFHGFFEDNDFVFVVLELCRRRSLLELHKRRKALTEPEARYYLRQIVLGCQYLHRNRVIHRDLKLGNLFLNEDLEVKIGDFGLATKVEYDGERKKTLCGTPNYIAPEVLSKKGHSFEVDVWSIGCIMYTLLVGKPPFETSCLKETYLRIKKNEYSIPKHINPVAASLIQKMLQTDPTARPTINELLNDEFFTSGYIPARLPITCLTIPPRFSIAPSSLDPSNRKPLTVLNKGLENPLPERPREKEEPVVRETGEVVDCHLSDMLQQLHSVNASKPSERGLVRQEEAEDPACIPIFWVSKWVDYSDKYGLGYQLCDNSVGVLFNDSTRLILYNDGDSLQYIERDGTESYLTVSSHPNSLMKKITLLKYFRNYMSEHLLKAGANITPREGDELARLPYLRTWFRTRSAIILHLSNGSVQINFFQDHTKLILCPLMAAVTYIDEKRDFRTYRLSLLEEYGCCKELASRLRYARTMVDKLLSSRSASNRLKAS

Structure (SMILES)	IC50 [µM]
N=C(N)NC(=O)c1nc(Cl)c(N)nc1N [3,5-diamino-N-carbamimidoyl-6-chloropyrazine-2-carboxamide]	6.63
CC(=O)Oc1cc(OC(C)=O)c2c(C)cc(=O)oc2c1 [(5-acetyloxy-4-methyl-2-oxochromen-7-yl) acetate]	> 50
Cc1cc(NCCCN)nc(-c2ccccc2O)n1 [MLS000079650]	> 50
CCC(=O)Nc1c2c(nn1-c1ccccc1C)CSC2 [MLS000087884]	> 50
CS(=O)(=O)N1CCN(c2ccccc2NC(=O)c2ccc(Br)o2)CC1 [MLS000123947]	> 50
NC(=O)c1cn([C@@H]2O[C@H](CO)[C@@H](O)[C@H]2O)c2ncnc(N)c12 [MLS000517268]	12.1
O=C(Nc1ccc(CN2CCOCC2)cc1)c1ccc(-c2cccc(Cl)c2)o1 [MLS000557592]	> 50
CCC1=NNc2cccc3c(OC)ccc1c23 [SMR000140796]	> 50
Clc1cncc(Cl)c1N=NCc1ccncc1 [SMR000206620]	> 50

Source: BindingDB's records for doi:10.7270/Q2930RK5 (University of Pittsburgh, 2008)
